Experimental data from publication PMC9975351 (Frontiers in Pharmacology, 2023).

How the values were obtained:
CES2 = molecular target: T1, CES2 (Homo sapiens, UniProt O00748); assay: Incubation with recombinant CES2; type: in vitro ADME; settings: 1 µM
T1 construct: purchased Cypex (Dundee, UK)
T1 sequence (O00748 27-559): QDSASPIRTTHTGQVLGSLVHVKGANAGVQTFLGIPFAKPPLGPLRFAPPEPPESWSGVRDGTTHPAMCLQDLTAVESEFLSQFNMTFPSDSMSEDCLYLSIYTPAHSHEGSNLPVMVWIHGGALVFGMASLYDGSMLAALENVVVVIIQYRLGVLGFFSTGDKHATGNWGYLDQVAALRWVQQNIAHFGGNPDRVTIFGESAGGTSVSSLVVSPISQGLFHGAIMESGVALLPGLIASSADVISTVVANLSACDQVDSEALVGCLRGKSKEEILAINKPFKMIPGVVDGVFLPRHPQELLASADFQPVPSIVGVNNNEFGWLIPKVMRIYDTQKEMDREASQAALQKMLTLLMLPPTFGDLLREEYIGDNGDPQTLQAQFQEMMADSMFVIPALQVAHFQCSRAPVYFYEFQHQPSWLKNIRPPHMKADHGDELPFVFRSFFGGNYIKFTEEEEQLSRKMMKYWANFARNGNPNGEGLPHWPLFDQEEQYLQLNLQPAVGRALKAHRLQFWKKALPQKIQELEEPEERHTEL
Procedure: (§1) All other generated metabolites area was less than 1% of the parent area/internal standard area. […] HY-17542 underwent deacetylation rapidly in HLM incubated with or without NADPH (Figures 4A, B). The calculated half-lives for NADPH-dependent metabolism and NADPH-independent degradation were 5.26 and 10.83 min, respectively. We incubated HY-17542 without HLM and NADPH to 180 min in the phosphate buffer condition. […] CES 1 or 2 was possible enzyme responsible for the deacetylation. […] HY-17542 metabolites in HLM incubated with NADPH are presented in Figures 4C, D. M1 and M3 were also detected from HY-17542 in a time-dependent manner.
(§2) FIGURE 4 Metabolic stability of HY-17542 in HLMs. (A) 1 µM of HY-17542 was incubated with HLMs in the presence or absence of NADPH and incubated with recombinant CES 1 or CES2. […] (C) Formation of M1 in the incubation of 1 µM of HY-17542 in HLMs with NADPH. (D) Formation of M3 in the incubation of 1 µM of HY-17542 in HLMs with NADPH. Data are presented as mean ± SD from three independent samples (n = 3). (E) Representative chromatogram of GRL0617 and its metabolites in the presence of a NADPH-generating system from QTOF MS analysis.

[1] = type: physicochemical; settings: human, microsomes, 3 h
Procedure: as §1

CES1 = molecular target: T2, CES1 (Homo sapiens, UniProt P23141); assay: Incubation with recombinant CES1; type: in vitro ADME; settings: 1 µM
T2 construct: purchased Cypex (Dundee, UK)
T2 sequence (P23141 18-567): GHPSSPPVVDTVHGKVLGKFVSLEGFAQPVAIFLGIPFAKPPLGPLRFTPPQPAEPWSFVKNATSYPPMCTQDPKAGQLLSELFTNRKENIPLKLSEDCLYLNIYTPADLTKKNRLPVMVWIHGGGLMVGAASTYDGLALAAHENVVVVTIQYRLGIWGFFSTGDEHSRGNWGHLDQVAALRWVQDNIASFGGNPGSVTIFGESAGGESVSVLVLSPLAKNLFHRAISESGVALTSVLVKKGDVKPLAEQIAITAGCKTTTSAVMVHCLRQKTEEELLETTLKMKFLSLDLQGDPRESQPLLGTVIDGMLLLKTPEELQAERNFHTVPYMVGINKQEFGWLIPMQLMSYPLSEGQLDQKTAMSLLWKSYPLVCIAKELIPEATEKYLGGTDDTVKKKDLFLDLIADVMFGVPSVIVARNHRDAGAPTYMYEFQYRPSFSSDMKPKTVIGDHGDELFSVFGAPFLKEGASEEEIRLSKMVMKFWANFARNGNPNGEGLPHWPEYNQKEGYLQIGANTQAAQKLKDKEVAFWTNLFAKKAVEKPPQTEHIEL
Procedure: as §1, §2

[2] = Metabolic stability and metabolite formation in pooled human liver microsomes with NADPH and/or UDPGA; type: in vitro ADME; settings: human, microsomes, pH 7.4, Half-life
Procedure: Microsomal incubation was conducted in triplicate using 0.1 M potassium phosphate buffer (PPB, pH 7.4) in eight-well tube strips in an 8 × 12 rack (1.2 mL; VWR, Emeryville, CA, United States). […] The mixture was pre-incubated at 37°C with shaking at approximately 100 rpm for 5 min. UGT glucuronidation was performed with HLMs (1 mg/mL) and alamethicin (25 μg/mg microsomal protein) in a 100-mM PPB (pH 7.4) solution on ice for 15 min. […] CYP, UGT, and combined reactions were initiated by addition of the NADPH regenerating system, UDPGA (1 mM), and both, respectively. […] The incubation mixtures were then centrifuged at 2,000 × g and 4°C for 20 min, and the supernatants were analyzed by LC-QTOF HRMS.
The incubation mixtures were pre-incubated at 37°C in a shaking water bath at approximately 100 rpm for 5 min. Reactions were initiated by the addition of an NADPH-regenerating system. The reaction was terminated, centrifuged then analyzed using the same method described above.
(§3) In the microsomal stability analysis, degradation half-life (t½) values were calculated using the following equation: t½=0.693/k where k is the first-order degradation rate constant, estimated by one-phase exponential-decay non-linear regression of the degradation time-course data using Graph Pad Prism 8.0 (Graph Pad Software Inc., San Diego, CA, United States). In vitro metabolic stability parameters, microsomal intrinsic clearance (CLint,mic), apparent intrinsic clearance (CL′int), and hepatic clearance (CLh), were calculated according to the well-stirred model approach ([Pang and Rowland, 1977]; [Baranczewski et al., 2006]). The apparent kinetic parameters of GRL0617 metabolism were determined by fitting a one-enzyme Michaelis-Menten equation. […] All data are presented as mean ± SD. Data were compared between groups using the unpaired Student’s t-test. The significance level was set at p < 0.05, unless indicated otherwise.

not read [3] = substrate: Cc1ccc(N)cc1C(=O)N[C@H](C)c1cccc2ccccc12; assay: not read; settings: other: M1 formation, recombinant CYP2D6, 10 min; 95% CI in parentheses; pH 7.4; 37.0 °C
not read [4] = substrate: Cc1ccc(N)cc1C(=O)N[C@H](C)c1cccc2ccccc12; assay: not read; type: in vitro ADME, human; settings: other: M1 formation, recombinant CYP3A5, 10 min; 95% CI in parentheses; pH 7.4; 37.0 °C
Procedure: Reactions were conducted in triplicate using 0.1 M PPB (pH 7.4) in eight-well tube strips in an 8 × 12 rack. […] The mixture was pre-incubated at 37°C with shaking at approximately 100 rpm for 5 min. Reactions were initiated by the addition of the NADPH-regenerating system and quenched with 200 µL ice-cold acetonitrile containing 50 nM CBZ. The samples were centrifuged at 1,000 × g and 4°C for 20 min, and the supernatants were subjected to LC-QTOF HRMS. […] The reaction was incubated, initiated, terminated, centrifuged then analyzed using the same method described above.
as §3, with “Data were compared between groups using the unpaired Student’s t-test. The significance level was set at p < 0.05, unless indicated otherwise.” left out

Molecule: CC(=O)Nc1ccc(C)c(C(=O)N[C@H](C)c2cccc3ccccc23)c1 [HY-17542, 5-[acetylamino]-2-methyl-N-[(1R)-1-(1-naphthalenyl)ethyl]benzamide]
- HY-17542 concentration remaining (CES2): 88.01 ± 10.5%
- Remaining compound [1]: 99.89 ± 7.69%
- Effect on HY-17542 concentration (CES1): did not affect HY-17542 concentration
- half-life at 1 µM [2]: 5.26 min
- half-life at 1 µM ([2]; NADPH-independent degradation): 10.8 min

B1: CYP2D6 (Homo sapiens) (protein)
chain: MGLEALVPLAVIVAIFLLLVDLMHRRQRWAARYPPGPLPLPGLGNLLHVDFQNTPYCFDQLRRRFGDVFSLQLAWTPVVVLNGLAAVREALVTHGEDTADRPPVPITQILGFGPRSQGVFLARYGPAWREQRRFSVSTLRNLGLGKKSLEQWVTEEAACLCAAFANHSGRPFRPNGLLDKAVSNVIASLTCGRRFEYDDPRFLRLLDLAQEGLKEESGFLREVLNAVPVLLHIPALAGKVLRFQKAFLTQLDELLTEHRMTWDPAQPPRDLTEAFLAEMEKAKGNPESSFNDENLRIVVADLFSAGMVTTSTTLAWGLLLMILHPDVQRRVQQEIDDVIGQVRRPEMGDQAHMPYTTAVIHEVQRFGDIVPLGVTHMTSRDIEVQGFRIPKGTTLITNLSSVLKDEAVWEKPFRFHPEHFLDAQGHFVKPEAFLPFSAGRRACLGEPLARMELFLFFTSLLQHFSFSVPTGQPRPSHHGVFAFLVSPSPYELCAVPR
- Km (not read [3]): 85.1 (69.4–107.8) µM

B2: CYP3A5 (Homo sapiens) (protein)
chain: MDLIPNLAVETWLLLAVSLVLLYLYGTRTHGLFKRLGIPGPTPLPLLGNVLSYRQGLWKFDTECYKKYGKMWGTYEGQLPVLAITDPDVIRTVLVKECYSVFTNRRSLGPVGFMKSAISLAEDEEWKRIRSLLSPTFTSGKLKEMFPIIAQYGDVLVRNLRREAEKGKPVTLKDIFGAYSMDVITGTSFGVNIDSLNNPQDPFVESTKKFLKFGFLDPLFLSIILFPFLTPVFEALNVSLFPKDTINFLSKSVNRMKKSRLNDKQKHRLDFLQLMIDSQNSKETESHKALSDLELAAQSIIFIFAGYETTSSVLSFTLYELATHPDVQQKLQKEIDAVLPNKAPPTYDAVVQMEYLDMVVNETLRLFPVAIRLERTCKKDVEINGVFIPKGSMVVIPTYALHHDPKYWTEPEEFRPERFSKKKDSIDPYIYTPFGTGPRNCIGMRFALMNMKLALIRVLQNFSFKPCKETQIPLKLDTQGLLQPEKPIVLKVDSRDGTLSGE
notes: purchased Cypex (Dundee, UK); host or cells: bactosomes (bacterial membranes)
- Km (not read [4]): 8.5 (7.6–9.5) µM
